In general, EC50 refers to the concentration giving half of the maximal effect.

In patent US9562053B2, “Benzo-fused heterocyclic derivatives useful as agonists of GPR120” (Janssen Pharmaceutica NV, priority 2013, dated 2017) one finds EC50 data, which are given here for 26 compounds.

In this experiment the target is T1, long form of human GPR120 (Homo sapiens, UniProt Q5NUL3).
T1 construct: host or cells: PathHunter CHO-K1 GPR120 β-Arrestin Cell Line
T1 sequence (Q5NUL3 1-377 isoform Q5NUL3-1): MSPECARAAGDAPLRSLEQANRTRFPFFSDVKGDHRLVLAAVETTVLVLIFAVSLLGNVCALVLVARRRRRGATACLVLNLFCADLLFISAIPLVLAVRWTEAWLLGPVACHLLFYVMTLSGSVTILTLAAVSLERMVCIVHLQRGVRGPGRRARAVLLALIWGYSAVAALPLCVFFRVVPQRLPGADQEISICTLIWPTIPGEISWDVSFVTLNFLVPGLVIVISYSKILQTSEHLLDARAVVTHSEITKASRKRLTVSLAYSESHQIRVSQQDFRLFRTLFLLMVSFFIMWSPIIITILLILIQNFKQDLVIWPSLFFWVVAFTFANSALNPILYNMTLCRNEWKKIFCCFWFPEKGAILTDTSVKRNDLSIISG
The experiment is described as follows: Human GPR120 DiscoveRx PathHunter Beta-Arrestin Assay, Procedure β-arrestin A (3000 cells per well). The class given is cell-based. The following applies: read-out: GPR120 B-arrestin A EC50. The source says: The binding of an agonist (medium/long chain fatty acids or small molecule agonists) to the G-protein-coupled receptor GPR120 activates phospholipase C, leading to release of intracellular Ca^+2 through the generation of inositol 1,4,5-trisphosphate (InsP3 or IP3). GPR120 activation can also trigger intracellular signaling via recruitment of β-Arrestin. In the present method, agonist-induced activation of the human GPR120 receptor is monitored through the use of PathHunter CHO-K1 GPR120 β-Arrestin Cell Line engineered by DiscoveRx, as detailed below. The cell lines are designed to co-express both the ProLink/Enzyme Donor (PK)-tagged GPCR and the Enzyme Activator (EA)-tagged β-Arrestin fusion proteins. Upon GPR120 receptor stimulation/activation, the EA-tagged β-Arrestin portion is translocated to the tagged receptor, where the two enzyme fragments are brought within close proximity. Under these conditions, these fragments can interact and form an active Beta-gal enzyme complex through Enzyme Fragment Complementation (EFC). This active Beta-gal complex can enzymatically hydrolyse the substrate to produce a detectable light signal; therefore, activation as a function of agonist concentration can be expressed as an EC50 value to determine relative compound activities. This in vitro assay therefore serves to assess compound agonist activity of the GPR120.
In Procedure β-arrestin A, the cell used were PathHunter CHO-K1 GPR120 β-Arrestin Cell Line, expressing the long form of human GPR120 (Genbank accession number NM_181745), with 3000 cells per well.
The selected CHO-K1 GPR120 β-Arrestin cells were cultured in Ham's F12 media supplemented with 10% fetal bovine serum (FBS), 1% Glutamine, 1×p/s, 800 μg/ml G418 and 300 μg/ml Hygromycin B (for selection). Cell stocks were maintained and grown in a sub-confluent state using standard cell culture procedures. The day before the experiment, the cells were harvested with non-enzymatic cell dissociation buffer and re-suspended in complete growth media at the desired concentration. A Corning 384-plate was then seeded with the proper number of cells in a volume of 25 μL, per well. The seeded plates were incubated overnight at 37° C.
On the day of the experiment, the Assay Buffer containing (a) HBSS with Ca^++ and Mg^++, (b) 20 mM HEPES, and (c) 0.1% BSA stabilizer (pH 7.4) was prepared. The growth medium was gently removed from the cell plates and 20 μL of Assay Buffer added to each well. The plate was then incubated at 37° C. for 60 mins. Test compounds were serially diluted in Assay Buffer to desired concentrations (more particularly, to one or more of the following μM concentrations: 25 μM, 12.5 μM, 6.25 μM, 3.125 μM, 1.562 μM, 0.781 μM, 0.391 μM, 0.195 μM, 0.098 μM, 0.049 μM, 0.024 μM, 0.012 μM). Five μl of compound dilution was then added to each well and the plate incubated at 37° C. for 90 mins. The detection reagents were prepared according to the manufacture's instruction. Twelve μL of the detection reagents were added to each well and the plate incubated at room temperature for 60 mins.
The plates were read on an EnVision instrument, using Protocol name: Luminescence, Plate type: 384 Costar, Measurement height: 3 mm, Measurement time: 1 s, Aperture: 384 Plate aperture. The % activity relative to the positive control was calculated using the following equation:
The % Activity values were plotted versus the concentration of test compound and fitted to a sigmoidal dose-response curve with a Hill slope=1 (fixed value) using nonlinear regression with GraphPad Prism 5.0 to calculate the EC50 values. The Fitting Equation was: Y=Bottom+(Top−Bottom)/(1+10^((LogEC50−X)*HillSlope)), where X is the log of the concentration and Y is the response.
For `Cc1c(CCC(=O)O)ccc(OCc2cc(Cl)cc3cc(C=CF)oc23)c1C` (mixture of isomers) [Compound 88, 3-(4-((5-Chloro-2-(2-fluorovinyl)benzofuran-7-yl)methoxy)-2,3-dimethylphenyl)propanoic acid], the EC50 is 0.594 µM.
`Cc1c(CCC(=O)O)ccc(OCc2cc(OC(F)(F)F)cc3cc(C=CF)oc23)c1C` (mixture of isomers) [Compound 97, 3-(4-{[2-(2-Fluoroethenyl)-5-(trifluoromethoxy)-1-benzofuran-7-yl]methoxy}-2,3-dimethylphenyl)propanoic acid]: the EC50 is 0.169 µM.
As to `Cc1cc2cc(F)cc(COc3ccc(CCC(=O)O)c(C)c3C)c2o1` [Compound 2, 3-{4-[(5-Fluoro-2-methyl-1-benzofuran-7-yl)methoxy]-2,3-dimethylphenyl}propanoic acid], the EC50 came out at 0.374 µM.
`CCc1cc2cc(F)cc(COc3ccc(CCC(=O)O)c(C)c3C)c2o1` [Compound 3, 3-{4-[(2-Ethyl-5-fluoro-1-benzofuran-7-yl)methoxy]-2,3-dimethylphenyl}propanoic acid]: the EC50 was 0.327 µM.
For the compound `Cc1c(CCC(=O)O)ccc(OCc2cc(F)cc3cc(C(F)(F)F)oc23)c1C` [Compound 4, 3-(4-{[5-Fluoro-2-(trifluoromethyl)-1-benzofuran-7-yl]methoxy}-2,3-dimethylphenyl)propanoic acid], the EC50 came out at 5.21 µM.
Take `Cc1oc2c(COc3ccc(CCC(=O)O)c(C)c3C)cc(F)cc2c1F` [Compound 5, 3-{4-[(3,5-Difluoro-2-methyl-1-benzofuran-7-yl)methoxy]-2,3-dimethylphenyl}propanoic acid]: the EC50 came to 0.949 µM.
For `Cc1c(CCC(=O)O)ccc(OCc2cc(Cl)cc3cnn(C)c23)c1C` [Compound 7, 3-{4-[(5-Chloro-1-methyl-1H-indazol-7-yl)methoxy]-2,3-dimethylphenyl}propanoic acid], the EC50 turned out to be 0.108 µM.
`Cc1c(CCC(=O)O)ccc(OCc2cc(Cl)cc3cn(C)nc23)c1C` [Compound 8, 3-{4-[(5-Chloro-2-methyl-2H-indazol-7-yl)methoxy]-2,3-dimethylphenyl}propanoic acid]: the EC50 came to 0.613 µM.
For the compound `CCc1cc2cc(Cl)cc(COc3ccc(CCC(=O)O)c(C)c3C)c2o1` [Compound 11, 3-{4-[(5-Chloro-2-ethyl-1-benzofuran-7-yl)methoxy]-2,3-dimethylphenyl}propanoic acid], the EC50 is 0.283 µM.
Turning to `CCc1cc2cc(OC(F)(F)F)cc(COc3ccc(CCC(=O)O)c(C)c3C)c2o1` [Compound 12, 3-(4-{[2-Ethyl-5-(trifluoromethoxy)-1-benzofuran-7-yl]methoxy}-2,3-dimethylphenyl)propanoic acid], the EC50 stood at 0.151 µM.
To `CCc1cc2cc(F)cc(COc3c(F)cc(CCC(=O)O)cc3F)c2o1` [Compound 17, 3-{4-[(2-Ethyl-5-fluoro-1-benzofuran-7-yl)methoxy]-3,5-difluorophenyl}propanoic acid] belongs 0.455 µM; to `Cc1c(CCC(=O)O)ccc(OCc2cc(F)cc3cc(C4CCCC4)oc23)c1C` [Compound 18, 3-{4-[(2-Cyclopentyl-5-fluoro-1-benzofuran-7-yl)methoxy]-2,3-dimethylphenyl}propanoic acid], 1.67 µM.
`COCc1cc2cc(F)cc(COc3ccc(CCC(=O)O)c(C)c3C)c2o1` [Compound 21, 3-(4-{[5-Fluoro-2-(methoxymethyl)-1-benzofuran-7-yl]methoxy}-2,3-dimethylphenyl)propanoic acid]: the concentration for a half-maximal effect (EC50) worked out at 0.458 µM.
For the compound `Cc1c(CCC(=O)O)ccc(OCc2cc(F)cc3cc(C(C)C)oc23)c1C` [Compound 22, 3-(4-{[5-Fluoro-2-(1-methylethyl)-1-benzofuran-7-yl]methoxy}-2,3-dimethylphenyl)propanoic acid], the EC50 was 0.797 µM.
With `Cc1c(CCC(=O)O)ccc(OCc2cc(F)cc3cc(CC(C)C)oc23)c1C` [Compound 23, 3-(4-{[5-Fluoro-2-(2-methylpropyl)-1-benzofuran-7-yl]methoxy}-2,3-dimethylphenyl)propanoic acid], the EC50 is 0.47 µM.
Consider `CCOc1cc(COc2ccc(CCC(=O)O)c(C)c2C)c2oc(CC)cc2c1` [Compound 29, 3-{4-[(5-Ethoxy-2-ethyl-1-benzofuran-7-yl)methoxy]-2,3-dimethylphenyl}propanoic acid], for which the EC50 amounted to 0.616 µM.
Turning to `CCCc1cc2cc(Cl)cc(COc3ccc(CCC(=O)O)c(C)c3C)c2o1` [Compound 31, 3-{4-[(5-Chloro-2-propyl-1-benzofuran-7-yl)methoxy]-2,3-dimethylphenyl}propanoic acid], the EC50 is 0.232 µM.
Turning to `Cc1c(CCC(=O)O)ccc(OCc2cc(F)cc3cc(C(F)F)oc23)c1C` [Compound 32, 3-(4-{[2-(Difluoromethyl)-5-fluoro-1-benzofuran-7-yl]methoxy}-2,3-dimethylphenyl)propanoic acid], the EC50 was 2.91 µM.
To `CCCc1cc2cc(OC(F)(F)F)cc(COc3ccc(CCC(=O)O)c(C)c3C)c2o1` [Compound 35, 3-(2,3-Dimethyl-4-{[2-propyl-5-(trifluoromethoxy)-1-benzofuran-7-yl]methoxy}phenyl)propanoic acid] belongs 0.19 µM.
With `Cc1cc2cc(OC(F)(F)F)cc(COc3ccc(CCC(=O)O)c(C)c3C)c2o1` [Compound 36, 3-(2,3-Dimethyl-4-{[2-methyl-5-(trifluoromethoxy)-1-benzofuran-7-yl]methoxy}phenyl)propanoic acid], the EC50 was found to be 0.085 µM.
`CCCc1cc2cc(C(F)(F)F)cc(COc3ccc(CCC(=O)O)c(C)c3C)c2o1` [Compound 37, 3-(2,3-Dimethyl-4-{[2-propyl-5-(trifluoromethyl)-1-benzofuran-7-yl]methoxy}phenyl)propanoic acid]: the EC50 came to 0.271 µM.
For the compound `CCc1cc2cc(Cl)c(C)c(COc3ccc(CCC(=O)O)c(C)c3C)c2o1` [Compound 40, 3-{4-[(5-Chloro-2-ethyl-6-methyl-1-benzofuran-7-yl)methoxy]-2,3-dimethylphenyl}propanoic acid], the EC50 came out at 0.107 µM.
Take `CCCc1cc2cc(Cl)cc(COc3ccc(CCC(=O)O)c(C)c3C#N)c2o1` [Compound 41, 3-{4-[(5-Chloro-2-propyl-1-benzofuran-7-yl)methoxy]-3-cyano-2-methylphenyl}propanoic acid]: the EC50 was determined as 0.626 µM.
Take `CCc1cc2cc(Cl)c(OC)c(COc3ccc(CCC(=O)O)c(C)c3C)c2o1` [Compound 44, 3-{4-[(5-Chloro-2-ethyl-6-methoxy-1-benzofuran-7-yl)methoxy]-2,3-dimethylphenyl}propanoic acid]: the EC50 came to 0.23 µM.
For `CCc1cc2cc(Br)cc(COc3ccc(CCC(=O)O)c(C)c3C)c2o1` [Compound 45, 3-{4-[(5-Bromo-2-ethyl-1-benzofuran-7-yl)methoxy]-2,3-dimethylphenyl}propanoic acid], the EC50 came to 0.095 µM.
Regarding `CCCc1cc2cc(I)cc(COc3ccc(CCC(=O)O)c(C)c3C)c2o1` [Compound 47, 3-{4-[(5-Iodo-2-propyl-1-benzofuran-7-yl)methoxy]-2,3-dimethylphenyl}propanoic acid], the EC50 is 0.197 µM.
